Reference: patent US20080275111A1, “Novel Use of Lignan Compounds” (priority 2005, published 2008)

Key:
TNF-α = TNF-α production in LPS-activated microglia (ELISA); type: cell-based, rat; conditions: 1 μg/ml LPS, compound 2.5 and 10 μM, 24 hours
Description: When the microglia is activated by LPS, it synthesizes and secretes various pro-inflammatory cytokines such as IL-1, IL-6 and TNF-α (Chen, S. Neurobiol. Aging, 17:781-787, 1996). Therefore, in order to examine the anti-inflammatory effect of the lignan compound of the present invention, the effect of the lignan compound of the present invention on the production of IL-6 and TNF-α in the activated microglia. First, only the neocortex was isolated from the brain of 1 day-old rat. Then, a microglia-astroglia mixture was prepared according to a method known in the art (Kim, H. Y. et al., J. Immunol., 171:6072-6079, 2003). […] Then, the amount of IL-6 and TNF-α secreted into the cell cultured medium was measured with the solid-phase ELISA system (RPN2742 for IL-6, RPN2744 for TNF-α, Amersham Bioscience). For this analysis, 50 μl of the supernatant of the cultured medium of microglia and 50 μl of the standard of each material (purely isolated and quantified IL-6 or TNF-α) were added into a 96-well plate coated with an antibody specific to mouse IL-6 and TNF-α. […] Then, 100 μl of a stop solution (Amersham Bioscience) was added into each well to stop the reaction, and the absorbance of the solution in each well was measured with a microreader at 450 nm. […]

COX-2 = COX-2 expression in LPS-activated microglia (Western blotting); type: cell-based, mouse; conditions: 1 μg/ml LPS, compound 2.5 and 10 μM, 16 or 24 hours
Description: In Example <6-2>, it was observed that the NO production induced by LPS in the tissue-cultured microglia of mouse was inhibited by the lignan compound of the present invention. NO is produced by iNOS enzyme of which expression is induced by activation of microglia. Therefore, the correlation between the reduction of NO production and inhibition of iNOS expression was examined. Additionally, a change in the amount of a protein COX-2 participating in the production of other inflammation-mediating materials was examined. For Western blotting analysis, tissue-cultured microglia was cultured in a 60 mm cell culture dish up to a concentration of 7.5×10^5 cells/ml. After 1 day of cultivation, the activation of microglia was induced by 1 μg/ml of LPS (Sigma) treatment. Simultaneously, the microglia was also treated with 2.5 and 10 μM of the lignan compound of the present invention together with LPS, and incubated for 16 or 24 hours. The incubated cell was washed with cold PBS 2 times, and then dissolved in a cold lysis buffer (1% SDS, 1 mM Na3VO4, 10 mM NaF, 10 mM Tris-Cl, pH 7.4 containing 1× protease inhibitors cocktail). […] Then, the amount of proteins was quantified according to BCA method. […]
NaCl containing 0.1% Tween 20) 3 times. […] Again, the membrane was then washed with TBS-T solution 3 times, and each band on the membrane was analyzed using ECL system (Sigma).

[1] = Toxicity in oral administration; conditions: rat, in vivo; oral administration to rats; data not shown; read-out: 50% lethal dose (LD50)
Procedure: The lignan compound of the present invention was tested for toxicity in oral administration to rats, and as a result, it was observed that the 50% lethal dose (LD50) was more than 2,000 mg/kg (Data is not shown).

[2] = system: lipid peroxidation of the brain tissue; experiment: Lipid peroxidation of brain homogenate supernatant induced by hydrogen peroxide; type: biochemical, rat
Procedure: After anesthesia of a rat, the tissue of the rat was perfused with 0.9% physiological saline solution containing EDTA. The brain was then extracted from the rat and washed with ice-cold 20 mM Tris-HCl (pH 7.4). After removing water, the weight of the brain was measured. The brain was mixed with 0.1 g/ml of ice-cold 20 mM Tris-HCl (pH 7.4) and homogenized. The homogenized brain was centrifuged and the supernatant was collected. 40 μl of the supernatant was mixed with 40 mM of hydrogen peroxide to induce lipid peroxidation. Simultaneously, different concentration (0.5, 1, 5 and 10 μM) of the lignan compounds isolated from the Example 1 were added into the supernatant, respectively. After incubation of the supernatant in water (37° C.) for 30-60 minutes, 162.5 μl of R1 solution (lipid peroxidation assay kit, Cat. No. 437634, Calbiochem) and 37.5 μl of R2 solution (lipid peroxidation assay kit, Cat. No. 437634, Calbiochem) were added into the cultured supernatant, and the supernatant was further incubated at 45° C. for 40 minutes. Then, the absorbance of the incubated medium was measured at 586 nm to quantify the lipid peroxidation.

[3] = system: tissue-cultured hippocampus neuron; experiment: Reactive oxygen species production induced by BSO in tissue-cultured hippocampus neuron (DCFDA); type: cell-based, mouse; conditions: 1 mM BSO for 8 hours, compound 0.1, 0.5 and 1 μM; control not treated with BSO
Procedure: Then, the antioxidant effect of the lignan compound of the present invention in the tissue-cultured hippocampus neuron was analyzed. For this analysis, the hippocampus of a fetus extracted from a pregnant (18 days) mouse was cultured in neurobasal medium (Gibco BRL) containing B-27 supplements and 2 mM L-glutamine for 10 days. To induce oxidative stress to the tissue-cultured hippocampus neuron, it was treated with 1 mM BSO for 8 hours. Here, the tissue-cultured hippocampus neuron was also treated with each concentration (0.1, 0.5 and 1 μM) of the lignan compound of the present invention simultaneously to analyze the reactive oxygen species-inhibitory effect of the lignan compound of the present invention. The control was not treated with BSO. Then, the amount of reactive oxygen species produced was measured by a method known in the art (Jung, Y. S., Biochem Biophys Res Commun., 320(3):789-94, 2004) using 10 μM DCFDA(molecular probes).

## COc1cc(C[C@H](C)[C@H](C)Cc2ccc3c(c2)OCO3)ccc1O [macelignan, (8R,8′S)-7-(3,4-methylenedioxyphenyl)-7′-(4-hydroxy-3-methoxyphenyl)-8,8′-dimethylbutane]
TNF-α
  production of TNF-α induced by LPS: dose-dependently inhibited
COX-2
  expression of COX-2 induced by LPS: inhibited in a concentration dependent manner
[1]
  LD50: > 2000 mg/kg
[2]; 10 μM compound, compared with control without hydrogen peroxide
  lipid peroxidation induced by hydrogen peroxide at 10 μM: in the similar level as the control
[2]; rat brain supernatant, 40 mM hydrogen peroxide, compound 0.5, 1, 5 and 10 μM
  lipid peroxidation induced by hydrogen peroxide: dose-dependently inhibited
[3]
  production of reactive oxygen species in the tissue-cultured hippocampus neuron: in the similar level as the control
